Assay [1] concerns CTLL-2 cell. Briefly: CTLL-2 cell assay of IL-2 activity. It is filed as cell-based. As to conditions: compared with IL-2 working standard.
Assay [2] deals with asthma mice. Briefly: Example 6: asthma mice challenged days 9-18, local atomization vs intraperitoneal Dex, lung function and pathology. As to conditions: 40 μg Dex per mouse. It is filed as in vivo, BALB/c mice. The procedure: (§1) Lung histopathology. The lungs of mice were fixed in 10% formalin, embedded in paraffin, sectioned, stained with H&E (Merck & Co, Inc) and PAS (Sigma), respectively, and examined under a 20-fold microscope.
Lung function measurement. After being anesthetized with 2% pentobarbital sodium, the mice were subjected to respiratory provocation test with methacholine (Sigma) at 3.125 mg/ml, 6.25 mg/ml, and 12.5 mg/ml prepared in PBS, respectively. The airway resistance curve was plotted and analyzed (FinePoint NAM). The assay was performed using the BUXCO Airway Resistance and Lung Compliance System (BUXCO Electronics).
Modeling of asthma model mice and administration. The same mice as in Example 1 were used for asthma modeling, which were sensitized by intraperitoneal injection with 100 μg of ovalbumin (OVA) (Sigma) and 2 mg of Al(OH)3 for injection (Sigma) on days 1 and 8, and challenged by daily nasal instillation with 20 μl of 2% OVA on days 9-18. According to the purpose of the experiment, 40 μg Dex was intraperitoneally injected on days 12-18, 14-18 and 16-18, or 25,000 IU IL-2(PEG)+5 μg Bud was administered by atomization on days 16-18, respectively.
Administration and histopathological analysis were performed in the same manner as in Example 2, and lung function test was performed in the same manner as in Example 3. […]

Assay [3] deals with Treg in bronchoalveolar lavage fluid. The experiment in a line: Flow cytometry of Treg in bronchoalveolar lavage fluid of OVA asthma mice after atomization in the lung. In kind it is in vivo, BALB/c mice. To be noted: same dose of the drug alone as in the combination, atomization days 12-14. As to the method:
(§2) Female BALB/c mice aged 6-8 weeks (purchased from SLAC Laboratory Animal Co., Ltd.) were used for modeling of asthma, which were sensitized by intraperitoneal injection with 100 μg of ovalbumin (OVA) (Sigma) and 2 mg of Al(OH)3 for injection (Sigma) on days 1 and 8, and challenged by daily nasal instillation with 20 μl of 2% OVA on days 9-14 (FIG. 1A).
(§3) The asthma mice model of Example 1 were subjected to drug intervention while challenge by nasal instillation on days 12-14. The specific administration method was that the mice were anesthetized with 7% chloral hydrate (Sangon Biotech (Shanghai) Co., Ltd.) and then administrated quantitatively through atomization in the lung using an atomization metered dosing device (MicroSprayer®—Model IA-1B), and the administration volume was fixed at 25 ul/mouse, and the administration dose was adjusted by the level of concentration. On the 15th day, relevant indicators were detected.
Collection of bronchoalveolar lavage fluid. The mice were sacrificed by cervical dislocation. […] The IFN-γ, IL-4, IL-10, and IL-13 in the supernatant were measured by using commercial ELISA kit (R&D Corp).
Flow cytometry. […] All results were analyzed by FlowJo software (Treestar).
On the technique in general: Flow cytometry measures light scatter and fluorescence of single cells or particles in a stream.

The test system of assay [4] is asthma mice. Briefly: Lung histopathology (H&E, PAS) of OVA asthma mice. In kind it is in vivo, BALB/c mice. To be noted: same dose of the drug alone as in the combination, atomization days 12-14. The procedure:
as §2, §3, §1

As for “PEG-modified IL-2: IL-2 modified with a non-branched PEG of a molecular weight of 20 kD, main site N-terminus”, the activity result in assay [1] was “comparable to that of the IL-2 working standard”.

Consider `C[C@@H]1C[C@H]2[C@@H]3CCC4=CC(=O)C=C[C@]4(C)[C@@]3(F)[C@@H](O)C[C@]2(C)[C@@]1(O)C(=O)CO` [Dex, dexamethasone], for which the “duration of intraperitoneal injection required to exert a therapeutic effect on asthma” value in assay [2] was “at least 7 consecutive days”.

“IL-2: human-derived IL-2, sequence SEQ ID NO. 1 (Xiamen Amoytop Biotech Co., Ltd.)”: in assay [3], the “Treg in bronchoalveolar lavage fluid, single drug alone” value is on record as “could not be achieved”. For the same molecule, the “pathological manifestations of lung inflammation, single drug alone” value in assay [4] was “could not be achieved”.

The values are drawn from patent publication US10898576B2, “Glucocorticoid combined with polyethylene glycol-modified interleukin 2 for treating respiratory disease” (priority 2016, dated 2021).
